Reference: BindingDB's records for doi:10.1021/jm8003625 (Abbott Laboratories, 2008)

Tests used:
Histamine H3 receptor [1] = biological target: Histamine H3 receptor (Rattus norvegicus, UniProt Q9QYN8); assay: Radioligand Binding Assay
Method: (§1) Competition radioligand binding assays were performed with increasing concentrations of test compound in the presence of [3H]ligand. All binding reactions were terminated by filtration. Bound radiolabel was determined by liquid scintillation counting. For all of the radioligand competition binding assays, IC50 values and Hill slopes were determined by Hill transformation of the data and Ki values were determined by the Cheng-Prusoff equation.

Histamine H3 receptor [2] = biological target: Histamine H3 receptor (Homo sapiens, UniProt Q9Y5N1); assay: Radioligand Binding Assay; details: pH 7.4; 25 °C
Method: as §1

Histamine H3 receptor (Homo sapiens, UniProt Q9Y5N1), sequence (Q9Y5N1 whole entry): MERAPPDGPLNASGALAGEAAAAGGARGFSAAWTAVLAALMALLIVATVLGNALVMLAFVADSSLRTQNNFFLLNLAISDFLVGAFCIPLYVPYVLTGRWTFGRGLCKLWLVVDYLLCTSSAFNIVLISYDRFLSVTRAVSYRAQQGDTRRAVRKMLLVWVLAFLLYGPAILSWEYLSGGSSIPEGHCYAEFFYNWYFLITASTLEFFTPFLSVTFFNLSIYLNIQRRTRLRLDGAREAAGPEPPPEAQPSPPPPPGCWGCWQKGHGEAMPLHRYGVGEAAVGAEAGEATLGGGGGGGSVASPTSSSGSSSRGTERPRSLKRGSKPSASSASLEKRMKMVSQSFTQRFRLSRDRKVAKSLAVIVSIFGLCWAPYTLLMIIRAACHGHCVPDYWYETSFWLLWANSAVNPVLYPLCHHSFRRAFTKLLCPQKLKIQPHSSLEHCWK
Histamine H3 receptor (Rattus norvegicus, UniProt Q9QYN8), sequence (Q9QYN8 whole entry): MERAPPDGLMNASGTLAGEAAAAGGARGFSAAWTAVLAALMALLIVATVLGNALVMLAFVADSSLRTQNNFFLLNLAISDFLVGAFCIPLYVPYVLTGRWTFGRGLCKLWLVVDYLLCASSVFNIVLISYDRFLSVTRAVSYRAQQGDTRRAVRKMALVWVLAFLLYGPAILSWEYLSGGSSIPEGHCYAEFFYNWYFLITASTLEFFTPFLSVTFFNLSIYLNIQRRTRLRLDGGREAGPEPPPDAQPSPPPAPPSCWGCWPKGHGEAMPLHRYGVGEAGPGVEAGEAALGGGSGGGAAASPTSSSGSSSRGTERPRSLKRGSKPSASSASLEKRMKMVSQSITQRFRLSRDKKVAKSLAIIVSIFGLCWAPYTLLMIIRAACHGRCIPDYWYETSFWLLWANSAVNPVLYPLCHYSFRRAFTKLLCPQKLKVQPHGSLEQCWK

Compound: CN[C@H]1CC[C@@]2(C)C(=CC[C@H]3[C@@H]4CC[C@@H]5[C@H](C)N(C)C[C@@]54CC[C@@H]32)C1 [(1R,2S,5S,6S,9R,12S,13R,16S)-N,6,7,13-tetramethyl-7-azapentacyclo[10.8.0.0^{2,9}.0^{5,9}.0^{13,18}]icos-18-en-16-amine]
- Ki (Histamine H3 receptor [1]): 302 nM
- Ki (Histamine H3 receptor [2]): 38 nM
